# In patent publication US8921394B2, “Prolylcarboxypeptidase inhibitors” (Merck Sharp & Dohme Corp., priority 2010, dated 2014):
# Counter-ions that a name gives are not always drawn. Like-named read-outs stand apart in the source and are kept apart here.
# How the values were obtained:
# [1] = target: T1, human PrCP (Homo sapiens, UniProt P42785); experiment: Prolylcarboxypeptidase (PRCP) enzyme activity assay, fluorescence intensity kinetic assay; type: biochemical
# T1 construct: made in house
# T1 sequence (P42785 46-496): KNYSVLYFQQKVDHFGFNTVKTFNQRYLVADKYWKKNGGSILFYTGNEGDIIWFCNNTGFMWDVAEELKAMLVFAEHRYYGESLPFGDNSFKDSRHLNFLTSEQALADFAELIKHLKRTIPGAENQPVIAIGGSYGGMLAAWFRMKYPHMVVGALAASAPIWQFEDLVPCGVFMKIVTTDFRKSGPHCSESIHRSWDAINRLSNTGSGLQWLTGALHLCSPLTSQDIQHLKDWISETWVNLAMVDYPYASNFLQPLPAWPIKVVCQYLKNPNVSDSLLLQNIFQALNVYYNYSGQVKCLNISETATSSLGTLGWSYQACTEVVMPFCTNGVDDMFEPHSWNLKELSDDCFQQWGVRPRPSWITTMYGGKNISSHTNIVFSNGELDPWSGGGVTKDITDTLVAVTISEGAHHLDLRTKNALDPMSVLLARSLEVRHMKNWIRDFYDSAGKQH
# Procedure: The potency of compounds of formula I against PrCP was determined by a fluorescence intensity kinetic assay measuring the IC50 values of PrCP inhibitor test compounds. […] The assay was run on a Perkin. […] The assay was performed using a Hamilton Star liquid handling workstation. The assay employed the internally quenched fluorescent substrate (1S)-1-carboxy-5-[(2,4-dinitrophenyl)amino]pentyl [(7-methoxy-2-oxo-2H-chromen-4-yl)acetyl]-L-alanyl-L-prolinate prepared in house. The assay was run in a 384-well microtiter plate at 37° C. with a total volume of 50 uL. […] The assay also contained 2% DMSO used to solubilize the substrate and inhibitor. Inhibitors were prepared in 100% DMSO and serial diluted (in 100% DMSO) to generate 11 point titration curves. Either 39 uL of human or mouse PrCP enzyme was added to the wells of the assay plate, followed by a 1 uL addition of the serially diluted inhibitor and mixed three times using a 30 uL mix volume. The reaction was initiated by the addition of 10 uL substrate and mixed three times using a 30 uL mix volume. The reactions were monitored continuously over 25 min at 37° C. to obtain initial velocities. IC50 values were calculated by comparing the resulting rates of reaction of the inhibited and control initial velocities.
# The enzymes were diluted in a mixture of 10 mM NaOAc (pH 5.5)/100 mM NaCl buffer containing 25 ug/mL bovine serum albumin that had been warmed to 37° C. in a water bath. The PrCP inhibitor test compounds were plated in 100% DMSO with a highest concentration of 500 uM. There were 12 dilution points for each compound tested including a blank with DMSO only. […] Likewise, two control compounds were similarly titrated and included in each assay, with final starting concentrations starting at 10,000 nM and 200 nM, respectively. […] The substrate was solubilized in 100% DMSO prior to dilution into the assay.
# [2] = intracerebroventricular to rats; cited from earlier work
# [3] = systemic administration to obese, leptin deficient mice; cited from earlier work
# [4] = recombinant human PrCP, cell line CHO, read-out: Human PRCP Enzyme Inhibition IC50
compound,measurement,setting,value
"Fc1ccc(-c2cc([C@@H]3CCN(CCc4ccccc4)C[C@H]3c3ccc(F)cc3)n[nH]2)cc1 (relative stereo) [Example 11, (3R*,4R*)-3-(4-fluorophenyl)-4-[5-(4-fluorophenyl)-1H-pyrazol-3-yl]-1-phenethyl-piperidine trifluoroacetate salt]",IC50,[1]; [4],2.3 nM
"N#Cc1cccc(-c2cc([C@@H]3CCN(CCc4ccccc4)C[C@H]3c3ccc(F)cc3)n[nH]2)c1 (relative stereo) [Example 12, 3-[3-[(3R*,4R*)-3-(4-fluorophenyl)-1-phenethyl-4-piperidyl]-1H-pyrazol-5-yl]benzonitrile triflizoroacetate salt]",IC50,[1]; [4],7.9 nM
"Fc1ccc([C@@H]2CN(CCc3ccccc3)CC[C@H]2c2n[nH]c(-c3ccc(Cl)cc3)n2)cc1 (relative stereo) [Example 20, (3R*,4R*)-4-[5-(4-chlorophenyl)-1H-1,2,4-triazol-3-yl]-3-(4-fluorophenyl)-1-phenethyl-piperidine trifluoroacetate salt]",IC50,[1]; [4],50.9 nM
"Cn1nc(C2(c3ccccn3)CCN(CCc3ccccc3)CC2)cc1-c1ccc(F)cc1 [Example 3, 2-[4-[5-(4-fluorophenyl)-1-methyl-pyrazol-3-yl]-1-phenethyl-4-piperidyl]pyridine bis(trifluoroacetate) salt]",IC50,[1],498 nM
"Clc1ccc(CCN2CCC(c3ccccc3)(c3cc(-c4ccc(Cl)cc4)[nH]n3)CC2)cc1 [Example 6, 1-[2-(4-chlorophenyl)ethyl]-4-[5-(4-chlorophenyl)-1H-pyrazol-3-yl]-4-phenyl-piperidine trifluoroacetate salt]",IC50,[1],175 nM
"CC(C)(C)N1C[C@@H](c2cc(-c3ccc(Cl)cc3)[nH]n2)[C@H](c2ccc(F)cc2F)C1 [Example 13, 3-[(3S,4R)-1-tert-butyl-4-(2,4-difluorophenyl)pyrrolidin-3-yl]-5-(4-chlorophenyl)-1H-pyrazole trifluoroacetate salt]",IC50,"[1]; recombinant human PrCP, cell line HEK, read-out: Human PRCP Enzyme Inhibition IC50",413 nM
t-butyl carbamate-prolyl prolinal [BPP],overnight food intake,[2],suppression of overnight food intake
same,overnight food intake,[3],suppression of overnight food intake
